Results from patent US20030134401A1, “Process for the stereoselective preparation of functionalized vicinal diols” (priority 2001, published 2003).

Columns and labels:
[1] = system: whole cell R. glutinis; experiment: Hydrolysis of epoxy nitriles by whole resting cells of Rhodotorula glutinis; type: cell-based, Rhodotorula glutinis CBS 8761; conditions: 50 mM potassium phosphate buffer pH 7.5, 35-37° C., 10 mM epoxide
Method: The racemic resolution of the epoxy nitriles was performed with 24 g/L (dry weight) of whole resting cells of Rhodotorula glutinis CBS 8761 in an aqueous solution of 50 mM potassium phosphate buffer at pH 7.5, 35-37° C. The starting epoxide concentration used was 10 mM. After 150 minutes the resolution was stopped by centrifugation and separation of the supernatant liquid and enantiopure epoxide (>99% ee, GC-analysis) could be obtained with 50% conversion (100% of the theoretical yield).
Determination of reaction and extraction progress as well as enantiomeric excess were performed by gas chromatography (GC) using fused silica cyclodextrin capillary column (FS-CYCLODEX alpha-I/P 50 m length, 0.32 mm ID, Chromatography Service GmbH) on an Hewlett-Packard 6890 gas chromatograph equipped with FID detector and using H2 as carrier gas at 120° C. and 0.6 bar pressure.
Examples 12 and 13 were carried out analogously to examples 8 and 10 using 2-cyano-3,3-dimethyl-oxirane as substrate.

[2] = system: Eph1; experiment: Hydrolysis of epoxy nitriles by cell free extract of recombinant E. coli BL21(DE3)[pEph1]; type: biochemical, Rhodotorula glutinis; conditions: 50 mM potassium phosphate buffer pH 7.5, 35-37° C., 10 mM epoxide
Method: Cell extracts (from cell suspensions prepared according to examples 9, 10 and 11) were prepared by sonication (5 minutes, duty cycle 30%, output control 3) using a Branson sonifier 250. To separate the cell extracts in a soluble and an insoluble fraction the disrupted cells in KPi-buffer were centrifuged for 10 minutes at 4° C. and 20,000×g. The supernatant, containing the soluble proteins, was called the S-fraction. The pellet, containing the insoluble proteins and cell debris, was resuspended in an equal volume of KPi-buffer and referred to as the P-fraction.
The racemic resolution of the epoxy nitrile was performed with the cell free extracts of E. coli BL21(DE3)[pEph1] containing 48 mg protein/L in an aqueous solution of 50 mM potassium phosphate buffer at pH 7.5, 35-37° C. The starting epoxide concentration used was 10 mM. After 150 minutes the resolution was stopped by short and rapid heating to 80° C. and enantiopure epoxide (>99% ee, GC-analysis) could be obtained with 50% conversion (100% of the theoretical yield). […]

| SMILES | activity [U/g (dry weight)] whole cell R. glutinis [1] | activity [U/g (protein)] cell free extract E. coli [2] |
| --- | --- | --- |
| CC1(C)OC1C#N (stereo not shown) [2-cyano-3,3-dimethyl-oxirane] | 3 (example 18) U/g (dry weight) | 300 (example 19) U/g (protein) |
| N#CC1OC12CCCCC2 (racemic) [1-oxa-spiro[2.5]octane-2-carbonitrile] | 6 (example 14) U/g (dry weight) | 3000 (example 16) U/g (protein) |
